Assay: xn = mol fraction of the nth substance listed
Details: 100 kPa

CN(C)C=O + CCCC[n+]1ccn(C)c1.F[B-](F)(F)F
x2 = 0
Details | viscosity [mPa·s]
303.15 K | 0.77
313.15 K | 0.688
323.15 K | 0.619

CCCC[n+]1ccn(C)c1.F[B-](F)(F)F + CN(C)C=O
viscosity [mPa·s]
Details | x1 = 0.1008 | x1 = 0.2015 | x1 = 0.3022 | x1 = 0.4024 | x1 = 0.502 | x1 = 0.6024 | x1 = 0.7019 | x1 = 0.8015 | x1 = 0.9002 | x1 = 1
303.15 K | – | 2.598 | 4.414 | 7.178 | 11.55 | 17.99 | 26.92 | 39.91 | 58.87 | 85.4
313.15 K | 1.298 | 2.198 | 3.585 | 5.632 | 8.76 | 13.13 | 19.05 | – | 38.08 | –
323.15 K | 1.142 | 1.892 | – | 4.587 | 6.849 | 10 | – | 19.37 | 26.77 | 36.27
333.15 K | 1.012 | 1.631 | 2.53 | 3.873 | 5.565 | 7.857 | – | 14.43 | 19.11 | 25.46

Reference: a compilation of properties of binary mixtures (doi:10.1016/j.jtice.2014.04.012)
